Data taken from US12358902B2, “5-(2,5-bis(4-chloro-2-isopropylphenyl)thiophen-3-yl)-1H-tetrazole for the topical treatment of bacterial infections” (DENOVAMED INC., priority 2017, dated 2025).
Converted amounts (≈) assume the structure as drawn.

Legend:
Clostridium spp. = assay: activity against Clostridium spp.; assay type: cell-based
MRSA (ATCC #33591) = assay: rabbit ischemic wound model; assay type: in vivo, New Zealand white rabbits; settings: topical daily to day 14; p<0.001 vs control, p<0.03 vs mupirocin
Protocol: 5-(2,5-bis(4-chloro-2-isopropylphenyl)thiophen-3-yl)-1H-tetrazole was tested for its efficacy against infection in the rabbit ischemic wound model, the gold standard animal model mimicking human DUI. In this model, the ear is made ischemic by division of central and rostral nutrient arteries of New Zealand white rabbits. New Zealand White rabbits were employed for this study and their husbandry and experimental manipulation adhered to standard Guides for the Care and Use of Laboratory Animals (2001). An incision was made to the level of bare cartilage at the base of the ear and followed by injection intradermally with epinephrine to obtain vasoconstriction and aid with skin detachment. Skin is separated from the underlying perichondrium and removed with a 6.0 mm aortic biopsy punch. Food and water were given ad libidum and animals were acclimatized for 7 days with photoperiods of alternating 12 h light and dark provided, along with analgesic (BUPRENEX™ (buprenorphine) 0.02 mg/kg sc) and anaesthesia (isoflurane (0.5-5% with oxygen carrier 0.5-2 L/min) during procedures.
An ischemia wound healing model was conducted surgically. Each wound was inoculated with 50 μl of 2×10^7 CFU/ml MRSA (ATCC #33591) and dressed. After one day, wounds were treated with either 50 μl control cream containing vehicle (N=4), 50 μl containing mupirocin (N=4), or 50 μl cream containing 5-(2,5-bis(4-chloro-2-isopropylphenyl)thiophen-3-yl)-1H-tetrazole (N=8) daily. Clinical observations were performed on days 1, 3, 5, 7, 10 and 14. Wounds were assessed and observations recorded using the Draize scoring system. Digital photographs of each wound were obtained and documented.
On day 14 post-wounding, under anesthesia, the animals were euthanized with an intravenous injection of BEUTHANASIA-D™ ([…] and phenytoin sodium) at a dosage of 150 mg/kg of body weight. Specimens including the entire wound, along with approximately 2-3 mm of the normal unwounded skin margins were harvested. Each ear wound specimen was sectioned into halves. For one half of the wound, the wound was placed into a container with 10% neutral buffered formalin and processed for routine histological evaluation. Wound organization was scored for four parameters on a scale of 0-4 at the wound site for inflammation, granulation, angiogenesis, and epithelialization. Wounds were characterized in a blinded manner by a board certified member of the College of American Pathologists. The other half of the wound was weighed (mg) in a sterile Petri dish, then placed in a sterile disposable tissue grinder and homogenized for quantitative microbiology. The tube containing the ground tissue sample was filled with 5 ml 0.85% sterile saline. Five 1:10 serial dilutions were then prepared with 0.5 ml aliquots and 4.5 ml of sterile saline per aliquot. Subsequently, 0.1 ml of the homogenate and each dilution was drop plated on trypticase soy agar and placed in an incubator at 37° C. The number of viable organisms per wound was recorded as cfu/gram of tissue.

S. aureus MRSA ATCC43300 = assay: broth microdilution MIC (CLSI); assay type: cell-based; settings: Staphylococcus aureus, read-out: Antibacterial activity (MIC)
Protocol: (§1) Using a broth microdilution assay according to Clinical Laboratory Standards Institute (CSLI) guidelines, we tested 5-(2,5-bis(4-chloro-2-isopropylphenyl)thiophen-3-yl)-1H-tetrazole (“Test Article” in below table) to establish MICs against a broad range of MDR bacteria and noted substantive activity versus methicillin-resistant Staphylococcus aureus (MRSA), vancomycin-resistant Enterococcus (VRE) and Streptococcus spp. Antimicrobial susceptibility testing was performed by a microdilution broth assay according to CLSI guidelines. The inoculum was prepared from stationary-phase cultures diluted in water. Microtiter plate wells received aliquots of 100 μL of the compound diluted in Mueller-Hinton II cation adjusted media. The final concentration of compound typically ranged from 250 to 0.125 μg/ml in serial two-fold dilutions. In addition to the test compound, growth and sterility controls were included, along with DMSO vehicle control rows. The microtiter plates were inoculated with 5×10^5 bacteria and incubated overnight at 35° C. in a humidified atmosphere.

[1] = system: S. aureus MRSA MISA MU3 NRS2; assay: broth microdilution MIC (CLSI); assay type: cell-based; settings: Staphylococcus aureus, read-out: Antibacterial activity (MIC)
Protocol: as §1

[2] = system: S. aureus MRSA MISA MU50 NRS1; assay: broth microdilution MIC (CLSI); assay type: cell-based; settings: Staphylococcus aureus, read-out: Antibacterial activity (MIC)
Protocol: as §1

[3] = system: S. aureus MRSA USA100 epidemic strain; assay: broth microdilution MIC (CLSI); assay type: cell-based; settings: Staphylococcus aureus, read-out: Antibacterial activity (MIC)
Protocol: as §1

[4] = system: S. aureus MRSA USA200 epidemic strain; assay: broth microdilution MIC (CLSI); assay type: cell-based; settings: Staphylococcus aureus, read-out: Antibacterial activity (MIC)
Protocol: as §1

[5] = system: S. aureus MRSA USA300 epidemic strain; assay: broth microdilution MIC (CLSI); assay type: cell-based; settings: Staphylococcus aureus, read-out: Antibacterial activity (MIC)
Protocol: as §1

[6] = system: S. aureus MRSA clinical isolate ciprofloxacin resistant; assay: broth microdilution MIC (CLSI); assay type: cell-based; settings: Staphylococcus aureus, MRSA, read-out: Antibacterial activity (MIC)
Protocol: as §1

[7] = system: S. aureus MRSA clinical isolate from Manchester; assay: broth microdilution MIC (CLSI); assay type: cell-based; settings: Staphylococcus aureus, MRSA, read-out: Antibacterial activity (MIC)
Protocol: as §1

[8] = system: S. aureus MRSA clinical isolate multi resistant; assay: broth microdilution MIC (CLSI); assay type: cell-based; settings: Staphylococcus aureus, MRSA, read-out: Antibacterial activity (MIC)
Protocol: as §1

[9] = system: S. aureus MRSA clinical isolate penicillin and erythromycin resistant; assay: broth microdilution MIC (CLSI); assay type: cell-based; settings: Staphylococcus aureus, MRSA, read-out: Antibacterial activity (MIC)
Protocol: as §1

In the case of `CC(C)c1cc(Cl)ccc1-c1cc(-c2nnn[nH]2)sc1-c1ccc(Cl)cc1C(C)C` [5-(4,5-bis(4-chloro-2-isopropylphenyl)thiophen-2-yl)-1H-tetrazole, reference compound], the activity (Clostridium spp.) is reported as “inactive”.
In the case of `C/C(=C\C(=O)OCCCCCCCCC(=O)O)C[C@@H]1OC[C@H](C[C@@H]2O[C@H]2[C@@H](C)[C@H](C)O)[C@@H](O)[C@H]1O` [mupirocin, reference compound], the “percent wound contraction over time (FIG. 1)” value (MRSA (ATCC #33591)) is reported as “control group had less wound contraction than either treated group”.
With `CN[C@H](CC(C)C)C(=O)N[C@H]1C(=O)N[C@@H](CC(N)=O)C(=O)N[C@H]2C(=O)N[C@H]3C(=O)N[C@H](C(=O)N[C@H](C(=O)O)c4cc(O)cc(O)c4-c4cc3ccc4O)[C@H](O)c3ccc(c(Cl)c3)Oc3cc2cc(c3O[C@@H]2O[C@H](CO)[C@@H](O)[C@H](O)[C@H]2O[C@H]2C[C@](C)(N)[C@H](O)[C@H](C)O2)Oc2ccc(cc2Cl)[C@H]1O` [vancomycin, reference compound] the MIC (S. aureus MRSA ATCC43300) was 0.5 µg/mL (≈ 0.345 µM), the MIC [1] was 1 µg/mL (≈ 0.69 µM) and the MIC [2] was 4 µg/mL (≈ 2.76 µM). For the same compound, the MIC [3] was 1 µg/mL (≈ 0.69 µM), the MIC [4] was 0.5 µg/mL (≈ 0.345 µM) and the MIC [5] was 1 µg/mL (≈ 0.69 µM). For the same compound, the MIC [6] was 0.5 µg/mL (≈ 0.345 µM), the MIC [7] was 0.5 µg/mL (≈ 0.345 µM) and the MIC [8] was 0.5 µg/mL (≈ 0.345 µM). It also gave an MIC [9] of 1 µg/mL (≈ 0.69 µM).
